Reference: ChEMBL document CHEMBL5550161, “Discovery of novel small molecules targeting the USP21/JAK2/STAT3 axis for the treatment of triple-negative breast cancer” (Eur J Med Chem, 2024)
Activity calls are given as the source filed them. The calls are words filed in the database; no cut-off is given here.

Key:
MDA-MB-231 [1] = experiment: Induction of apoptosis in human MDA-MB-231 cells assessed as necrotic cells at 1.6 uM incubated for 24 hrs by Annexin V-FITC/PI staining based flow cytometry (reference value: 0.07 %); assay type: functional
HCC1806 [2] = experiment: Induction of apoptosis in human HCC1806 cells assessed as decrease in STAT3 phosphorylation at Y705 by Western blot analysis; assay type: functional, cell-based; settings: dose 0.1-0.4 µM
MDA-MB-231 [3] = experiment: Induction of apoptosis in human MDA-MB-231 cells assessed as late apoptotic cells at 0.8 uM incubated for 24 hrs by Annexin V-FITC/PI staining based flow cytometry (reference value: 1.23 %); assay type: functional
MDA-MB-231 [4] = experiment: Anti-proliferative activity against human MDA-MB-231 cells assessed as cell growth inhibition incubated for 72 hrs by MTT assay; assay type: functional, cell-based; settings: MDA-MB-231, 72 h
HCC1806 [5] = experiment: Induction of apoptosis in human HCC1806 cells assessed as late apoptotic cells at 0.4 uM incubated for 24 hrs by Annexin V-FITC/PI staining based flow cytometry (reference value: 0.23 %); assay type: functional
HCC1806 [6] = experiment: Induction of apoptosis in human HCC1806 cells assessed as early apoptotic cells at 0.1 uM incubated for 24 hrs by Annexin V-FITC/PI staining based flow cytometry (reference value: 0.67 %); assay type: functional
HCC1806 [7] = experiment: Induction of cell cycle arrest at G2/M phase in human HCC1806 cells at 0.1 to 0.4 uM incubated for 24 hrs; assay type: functional, cell-based; settings: dose 0.1-0.4 µM
HCC1806 [8] = experiment: Induction of apoptosis in human HCC1806 cells assessed as early apoptotic cells at 1.6 uM incubated for 24 hrs by Annexin V-FITC/PI staining based flow cytometry (reference value: 0.67 %); assay type: functional
HCC1806 [9] = experiment: Antitumor activity against human HCC1806 cells xenografted in Balb/c mouse at 60 mg/kg, ip bid measured after 14 days relative to control; assay type: functional; settings: HCC1806, 336 h, time 14 day, read-out: TGI
MDA-MB-231 [10] = experiment: Induction of apoptosis in human MDA-MB-231 cells assessed as early apoptotic cells at 0.4 uM incubated for 24 hrs by Annexin V-FITC/PI staining based flow cytometry (reference value: 1.16 %); assay type: functional
HCC1806 [11] = experiment: Antitumor activity against human HCC1806 cells xenografted in Balb/c mouse assessed as decrease in JAK2 level at 40 to 60 mg/kg, ip bid measured after 14 days by immunofluorescence based analysis; assay type: functional, organism-based; settings: dose 40-60 mg/kg, time 14.0 day
HCC1806 [12] = experiment: Inhibition of cell migration in human HCC1806 cells; assay type: functional, cell-based; settings: dose 0.05-2 µM
MDA-MB-231 [13] = experiment: Induction of apoptosis in human MDA-MB-231 cells assessed as viable cells at 0.2 uM incubated for 24 hrs by Annexin V-FITC/PI staining based flow cytometry (reference value: 97.54 %); assay type: functional; settings: read-out: Activity
HCC1806 [14] = experiment: Induction of apoptosis in human HCC1806 cells assessed as early apoptotic cells at 0.2 uM incubated for 24 hrs by Annexin V-FITC/PI staining based flow cytometry (reference value: 0.67 %); assay type: functional
MDA-MB-231 [15] = experiment: Induction of apoptosis in human MDA-MB-231 cells assessed as viable cells at 0.4 uM incubated for 24 hrs by Annexin V-FITC/PI staining based flow cytometry (reference value: 97.54 %); assay type: functional; settings: read-out: Activity
MDA-MB-231 [16] = experiment: Induction of apoptosis in human MDA-MB-231 cells assessed as necrotic cells at 0.4 uM incubated for 24 hrs by Annexin V-FITC/PI staining based flow cytometry (reference value: 0.07 %); assay type: functional
MDA-MB-231 [17] = experiment: Induction of apoptosis in human MDA-MB-231 cells assessed as ROS production rate at 0.4 uM incubated for 24 hrs by DCFH-DA staining based flow cytometry (reference value: 0.28 %); assay type: functional
HCC1806 [18] = experiment: Synergistic inhibition of cell proliferation in human HCC1806 cells assessed as combination index at 0.35 uM in presence of PTX; assay type: functional
[19] = target: Tyrosine-protein kinase JAK2 (Homo sapiens, UniProt O60674); experiment: Induction of JAK2 degradation in human HCC1806 cells at 0.2 uM incubated for 18 to 72 hrs by Western blot analysis; assay type: cell-based; settings: time 18-72 hrs
HCC1806 [20] = experiment: Induction of apoptosis in human HCC1806 cells assessed as necrotic cells at 0.2 uM incubated for 24 hrs by Annexin V-FITC/PI staining based flow cytometry (reference value: 0.15 %); assay type: functional
MDA-MB-231 [21] = experiment: Inhibition of cell migration in human MDA-MB-231 cells; assay type: functional, cell-based; settings: dose 0.05-2 µM
Hs-578T = experiment: Anti-proliferative activity against human Hs-578T cells assessed as cell growth inhibition incubated for 72 hrs by MTT assay; assay type: functional, cell-based
MDA-MB-231 [22] = experiment: Induction of apoptosis in human MDA-MB-231 cells assessed as necrotic cells at 0.2 uM incubated for 24 hrs by Annexin V-FITC/PI staining based flow cytometry (reference value: 0.07 %); assay type: functional
HCC1806 [23] = experiment: Induction of apoptosis in human HCC1806 cells assessed as necrotic cells at 1.6 uM incubated for 24 hrs by Annexin V-FITC/PI staining based flow cytometry (reference value: 0.15 %); assay type: functional
MDA-MB-231 [24] = experiment: Induction of cell cycle arrest at G2/M phase in human MDA-MB-231 cells at 0.1 to 0.4 uM incubated for 24 hrs; assay type: functional, cell-based; settings: dose 0.1-0.4 µM
HCC1806 [25] = experiment: Induction of apoptosis in human HCC1806 cells assessed as ROS production rate at 0.2 uM incubated for 24 hrs by DCFH-DA staining based flow cytometry (reference value: 0.23 %); assay type: functional
MDA-MB-231 [26] = experiment: Inhibition of colony formation in human MDA-MB-231 cells at 0.05 uM measured after 7 days; assay type: functional, cell-based; settings: time 7.0 day
HCC1806 [27] = experiment: Upregulation of JAK2 mRNA level in human HCC1806 cells at 0.2 uM incubated for 18 to 72 hrs; assay type: functional, cell-based; settings: time 18-72 hrs
MDA-MB-231 [28] = experiment: Induction of apoptosis in human MDA-MB-231 cells assessed as decrease in STAT3 level by Western blot analysis; assay type: functional, cell-based; settings: dose 0.1-0.4 µM
HCC1806 [29] = experiment: Anti-proliferative activity against human HCC1806 cells assessed as reduction in EdU-positive cells at 0.2 uM; assay type: functional, cell-based
HCC1806 [30] = experiment: Induction of apoptosis in human HCC1806 cells assessed as decrease in STAT3 level by Western blot analysis; assay type: functional, cell-based; settings: dose 0.1-0.4 µM
HCC1806 [31] = experiment: Antitumor activity against human HCC1806 cells xenografted in Balb/c mouse assessed as increase in E-cadherin level at 40 to 60 mg/kg, ip bid measured after 14 days by IHC analysis; assay type: functional, organism-based; settings: dose 40-60 mg/kg, time 14.0 day
MDA-MB-231 [32] = experiment: Induction of apoptosis in human MDA-MB-231 cells assessed as viable cells at 0.1 uM incubated for 24 hrs by Annexin V-FITC/PI staining based flow cytometry (reference value: 97.54 %); assay type: functional; settings: read-out: Activity
MDA-MB-231 [33] = experiment: Inhibition of cell invasion in human MDA-MB-231 cells; assay type: functional, cell-based; settings: dose 0.05-2 µM
[34] = Toxicity in Balb/c nude mouse assessed as histopathological change in kidney at 60 mg/kg, ip bid for 14 days consecutively; assay type: organism-based; settings: in vivo, 336 h, time 14 day
HCC1806 [35] = experiment: Induction of apoptosis in human HCC1806 cells assessed as late apoptotic cells at 1.6 uM incubated for 24 hrs by Annexin V-FITC/PI staining based flow cytometry (reference value: 0.23 %); assay type: functional

Sequence of Tyrosine-protein kinase JAK2 (O60674 whole entry): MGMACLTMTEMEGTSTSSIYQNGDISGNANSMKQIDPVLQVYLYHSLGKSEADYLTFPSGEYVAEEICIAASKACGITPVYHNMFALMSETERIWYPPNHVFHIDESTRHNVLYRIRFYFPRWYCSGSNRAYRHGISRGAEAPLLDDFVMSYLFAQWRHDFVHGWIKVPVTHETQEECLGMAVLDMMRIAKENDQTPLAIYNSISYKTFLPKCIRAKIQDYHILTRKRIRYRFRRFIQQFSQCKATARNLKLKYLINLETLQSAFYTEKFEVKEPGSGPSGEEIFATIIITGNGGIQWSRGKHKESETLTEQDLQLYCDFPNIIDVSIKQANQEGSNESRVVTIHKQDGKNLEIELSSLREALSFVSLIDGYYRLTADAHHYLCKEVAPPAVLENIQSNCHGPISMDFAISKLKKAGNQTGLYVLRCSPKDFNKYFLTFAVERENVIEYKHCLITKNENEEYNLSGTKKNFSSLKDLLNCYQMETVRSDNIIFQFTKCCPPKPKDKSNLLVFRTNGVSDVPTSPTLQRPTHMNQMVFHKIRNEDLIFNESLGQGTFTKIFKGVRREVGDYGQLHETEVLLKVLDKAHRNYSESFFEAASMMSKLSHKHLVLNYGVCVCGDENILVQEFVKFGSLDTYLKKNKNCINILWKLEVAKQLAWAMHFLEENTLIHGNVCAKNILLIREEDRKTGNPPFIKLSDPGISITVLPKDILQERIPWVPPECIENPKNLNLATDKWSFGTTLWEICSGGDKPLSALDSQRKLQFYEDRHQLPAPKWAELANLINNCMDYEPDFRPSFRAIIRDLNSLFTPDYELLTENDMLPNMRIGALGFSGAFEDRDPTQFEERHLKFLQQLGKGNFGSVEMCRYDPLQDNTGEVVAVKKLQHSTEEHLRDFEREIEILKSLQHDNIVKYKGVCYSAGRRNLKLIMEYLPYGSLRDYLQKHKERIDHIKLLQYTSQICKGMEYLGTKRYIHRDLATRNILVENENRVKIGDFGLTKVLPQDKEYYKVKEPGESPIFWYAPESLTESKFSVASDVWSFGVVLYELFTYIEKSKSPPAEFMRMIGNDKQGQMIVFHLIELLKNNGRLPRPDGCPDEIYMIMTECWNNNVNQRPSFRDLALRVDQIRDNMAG

COc1cc(Nc2cc(F)ccc2C(=O)NCCc2c[nH]c3c(F)ccc(F)c23)cc(OC)c1OC
Activity (MDA-MB-231 [1]): 0.09% | Activity (HCC1806 [2]): Active | Activity (MDA-MB-231 [3]): 2.15% | IC50 (MDA-MB-231 [4]): 190 nM | Activity (HCC1806 [5]): 0.76% | Activity (HCC1806 [6]): 0.65% | Activity (HCC1806 [7]): Active | Activity (HCC1806 [8]): 4.81% | inhibition in vivo at 60 mg/kg (HCC1806 [9]): 67.7% | Activity (MDA-MB-231 [10]): 2.31% | Activity (HCC1806 [11]): Active | inhibition (HCC1806 [12]): Active | viability at 0.2 µM (MDA-MB-231 [13]): 96.1% | Activity (HCC1806 [14]): 1.13% | viability at 0.4 µM (MDA-MB-231 [15]): 95.7% | Activity (MDA-MB-231 [16]): 0.14% | Activity (MDA-MB-231 [17]): 3.17% | CI (HCC1806 [18]): <1 | Activity [19]: Active | Activity (HCC1806 [20]): 0.33% | inhibition (MDA-MB-231 [21]): Active | IC50 (Hs-578T): 590 nM | Activity (MDA-MB-231 [22]): 0.19% | Activity (HCC1806 [23]): 0.35% | Activity (MDA-MB-231 [24]): Active | Activity (HCC1806 [25]): 2.3% | inhibition (MDA-MB-231 [26]): Active | Activity (HCC1806 [27]): Active | Activity (MDA-MB-231 [28]): Active | Activity (HCC1806 [29]): Active | Activity (HCC1806 [30]): Active | Activity (HCC1806 [31]): Active | viability at 0.1 µM (MDA-MB-231 [32]): 96.9% | inhibition (MDA-MB-231 [33]): Active | Activity [34]: Non-Toxic | Activity (HCC1806 [35]): 1.92%
